pEC50: −log10 of the molar value.

We go through 49 compounds from patent publication US20230271949A1, “GLP-1R MODULATING COMPOUNDS” (ASCLETIS BIOSCIENCE CO., LTD., priority 2022, published 2023).

For the test, the target named is GLP-1R (Homo sapiens, UniProt P43220). In words: GLP-1R agonist cAMP stimulation assay (HTRF cAMP). In kind it is cell-based. The conditions noted are these: HEK293 cell line expressing GLP-1 target; HTRF cAMP agonist mode, 30 min at RT. Put shortly: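 Read-out was HTRF (665/615 ratio), interpolated onto a cAMP standard curve and normalised to DMSO (0%) and maximal GLP-1(7-37) reference (100%) wells. Assay: GLP-1R cells at 1.0×E5/mL incubated with compound dilution series (3-fold, 10 points) for 30 min at room temperature before 60 min detection.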
Chain of GLP-1R (P43220 24-463): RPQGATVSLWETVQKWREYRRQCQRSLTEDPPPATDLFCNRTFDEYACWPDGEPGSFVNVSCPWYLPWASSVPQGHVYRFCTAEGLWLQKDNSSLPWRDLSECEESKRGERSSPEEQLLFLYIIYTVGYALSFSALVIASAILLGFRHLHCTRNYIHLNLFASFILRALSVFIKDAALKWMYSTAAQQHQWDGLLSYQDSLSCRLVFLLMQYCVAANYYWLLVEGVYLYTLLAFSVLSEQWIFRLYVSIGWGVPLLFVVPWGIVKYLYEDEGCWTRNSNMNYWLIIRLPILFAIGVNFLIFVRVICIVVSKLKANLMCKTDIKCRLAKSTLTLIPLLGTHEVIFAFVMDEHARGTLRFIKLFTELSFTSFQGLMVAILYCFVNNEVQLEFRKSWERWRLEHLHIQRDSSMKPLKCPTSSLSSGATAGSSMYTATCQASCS
In general terms: TR-FRET usually uses a lanthanide donor and a delayed reading to cut background.
What is called pEC50 is the negative decadic logarithm of the EC50, by convention in mol/L. On to `N#Cc1ccc(COc2cccc(C3CCN(Cc4nc5cc(C(=O)Nc6ccc7[nH]nc(C(F)(F)F)c7c6)ccc5n4C[C@@H]4CCO4)CC3)n2)c(F)c1` [Compound 130], for which the pEC50 was 8.87.
The compound `Cc1cc(NC(=O)c2ccc3c(c2)nc(CN2CCC(c4cccc(OCc5ccc(Cl)cn5)n4)CC2)n3C[C@@H]2CCO2)cc2c1NC(=O)C21CC1` [Compound 131] showed a negative-log EC50 (pEC50) of 8.92.
As to `Cc1cc(NC(=O)c2ccc3c(c2)nc(CN2CCC(c4cccc(OCc5ccc(C#N)cc5F)n4)CC2)n3C[C@@H]2CCO2)cc2c(C(F)F)n[nH]c12` [Compound 132], the negative-log EC50 (pEC50) is 9.13.
With `Cc1n[nH]c2ccc(NC(=O)c3ccc4c(c3)nc(CN3CCC(c5cccc(OCc6ccc(C#N)cc6F)n5)CC3)n4C[C@@H]3CCO3)cc12` [Compound 133], the negative logarithm of the EC50 (pEC50) was 9.42.
To `CCc1n[nH]c2ccc(NC(=O)c3ccc4c(c3)nc(CN3CCC(c5cccc(OCc6ccc(C#N)cc6F)n5)CC3)n4C[C@@H]3CCO3)cc12` [Compound 135] belongs 8.90; to `Cc1n[nH]c2ccc(NC(=O)c3ccc4c(n3)nc(CN3CC=C(c5cccc(OCc6ccc(Cl)cc6F)n5)CC3)n4C[C@@H]3CCO3)cc12` [Compound 136], 8.66; to `Cc1cc(NC(=O)c2ccc3c(n2)nc(CN2CC=C(c4cccc(OCc5ccc(Cl)cc5F)n4)CC2)n3C[C@@H]2CCO2)cc2cn[nH]c12` [Compound 137], 8.26.
The value for `COc1n[nH]c2ccc(NC(=O)c3ccc4c(c3)nc(CN3CC=C(c5cccc(OCc6ccc(Cl)cc6F)n5)CC3)n4C[C@@H]3CCO3)cc12` [Compound 138] was 8.05; that for `O=C(Nc1ccc2[nH]nc(F)c2c1)c1ccc2c(c1)nc(CN1CC=C(c3cccc(OCc4ccc(Cl)cc4F)n3)CC1)n2C[C@@H]1CCO1` [Compound 139] was 7.82.
For `CC(C)c1n[nH]c2ccc(NC(=O)c3ccc4c(c3)nc(CN3CC=C(c5cccc(OCc6ccc(Cl)cc6F)n5)CC3)n4C[C@@H]3CCO3)cc12` [Compound 140], the negative logarithm of the EC50 (pEC50) is 8.53.
To `O=C(Nc1ccc2[nH]ncc2c1)c1ccc2c(c1)nc(CN1CC=C(c3cccc(OCc4ccc(Cl)cc4F)n3)CC1)n2C[C@@H]1CCO1` [Compound 141] belongs 8.48; to `O=C(Nc1ccc2c(c1)C1(CC1)C(=O)N2)c1ccc2c(c1)nc(CN1CC=C(c3cccc(OCc4ccc(Cl)cc4F)n3)CC1)n2C[C@@H]1CCO1` [Compound 143], 9.12.
With `O=C(Nc1ncc2[nH]cnc2n1)c1ccc2c(c1)nc(CN1CC=C(c3cccc(OCc4ccc(Cl)cc4F)n3)CC1)n2C[C@@H]1CCO1` [Compound 144], the pEC50 was 7.63.
`Cn1c(=O)[nH]c2ccc(NC(=O)c3ccc4c(c3)nc(CN3CC=C(c5cccc(OCc6ccc(Cl)cc6F)n5)CC3)n4C[C@@H]3CCO3)cc21` [Compound 146]: the pEC50 was 7.62.
The value for `O=C(Nc1ccn2nccc2c1)c1ccc2c(c1)nc(CN1CC=C(c3cccc(OCc4ccc(Cl)cc4F)n3)CC1)n2CC1CCO1` (stereo not shown) [Compound 148] was 7.68; that for `O=C(Nc1ccn2ncc(Cl)c2c1)c1ccc2c(c1)nc(CN1CC=C(c3cccc(OCc4ccc(Cl)cc4F)n3)CC1)n2CC1CCO1` (stereo not shown) [Compound 149] was 7.46; that for `O=C(Nc1ccc2ncsc2c1)c1ccc2c(c1)nc(CN1CC=C(c3cccc(OCc4ccc(Cl)cc4F)n3)CC1)n2C[C@@H]1CCO1` [Compound 150] was 8.24.
To `O=C(Nc1cc(F)c2[nH]ncc2c1)c1ccc2c(c1)nc(CN1CC=C(c3cccc(OCc4ccc(Cl)cc4F)n3)CC1)n2C[C@@H]1CCO1` [Compound 152] belongs 9.19.
Compound `Cc1cc(NC(=O)c2ccc3c(c2)nc(CN2CC=C(c4cccc(OCc5ccc(Cl)cc5F)n4)CC2)n3C[C@@H]2CCO2)cc2c1NC(=O)C21CC1` [Compound 155] showed a negative logarithm of the EC50 (pEC50) of 9.26.
`Cc1n[nH]c2c(C(F)(F)F)cc(NC(=O)c3ccc4c(c3)nc(CN3CC=C(c5cccc(OCc6ccc(Cl)cc6F)n5)CC3)n4C[C@@H]3CCO3)cc12` [Compound 156] had a negative logarithm of the EC50 (pEC50) of 9.17.
`O=C(Nc1cc(C(F)(F)F)c2c(c1)C1(CC1)C(=O)N2)c1ccc2c(c1)nc(CN1CC=C(c3cccc(OCc4ccc(Cl)cc4F)n3)CC1)n2C[C@@H]1CCO1` [Compound 157] showed a negative-log EC50 (pEC50) of 9.11.
In the case of `O=C(Nc1cc(C(F)(F)F)c2[nH]ncc2c1)c1ccc2c(c1)nc(CN1CC=C(c3cccc(OCc4ccc(Cl)cc4F)n3)CC1)n2C[C@@H]1CCO1` [Compound 158], the negative-log EC50 (pEC50) is 8.99.
The value for `Cc1nn(C)c2ccc(NC(=O)c3ccc4c(c3)nc(CN3CC=C(c5cccc(OCc6ccc(Cl)cc6F)n5)CC3)n4C[C@@H]3CCO3)cc12` [Compound 159] was 8.01; that for `Cc1n[nH]c2c(Cl)cc(NC(=O)c3ccc4c(c3)nc(CN3CC=C(c5cccc(OCc6ccc(Cl)cc6F)n5)CC3)n4C[C@@H]3CCO3)cc12` [Compound 160] was 9.01.
Compound `O=C(Nc1ccc2[nH]nc(C(F)(F)F)c2c1)c1ccc2c(c1)nc(CN1CC=C(c3cccc(OCc4ccc(Cl)cc4F)n3)CC1)n2C[C@@H]1CCO1` [Compound 161] had a pEC50 of 9.06.
On to `O=C(Nc1ccc2[nH]nc(C3CC3)c2c1)c1ccc2c(c1)nc(CN1CC=C(c3cccc(OCc4ccc(Cl)cc4F)n3)CC1)n2C[C@@H]1CCO1` [Compound 162], for which the negative-log EC50 (pEC50) is 8.91.
In turn, `O=C(Nc1cc(C(F)(F)F)c2[nH]nc(C3CC3)c2c1)c1ccc2c(c1)nc(CN1CC=C(c3cccc(OCc4ccc(Cl)cc4F)n3)CC1)n2C[C@@H]1CCO1` [Compound 163] gave a pEC50 of 9.00.
To `Cc1cc(NC(=O)c2ccc3c(c2)nc(CN2CC=C(c4cccc(OCc5ccc(Cl)cc5F)n4)CC2)n3C[C@@H]2CCO2)cc2c(C3CC3)n[nH]c12` [Compound 164] belongs 8.77.
Compound `Cc1n[nH]c2c(C)cc(NC(=O)c3ccc4c(c3)nc(CN3CC=C(c5cccc(OCc6ccc(Cl)cn6)n5)CC3)n4C[C@@H]3CCO3)cc12` [Compound 165] gave a negative-log EC50 (pEC50) of 9.06.
To `Cc1cc(NC(=O)c2ccc3c(c2)nc(CN2CC=C(c4cccc(OCc5ccc(Cl)cc5F)n4)CC2)n3C[C@@H]2CCO2)cc2nn[nH]c12` [Compound 167] belongs 9.17; to `Cc1n[nH]c2cnc(NC(=O)c3ccc4c(c3)nc(CN3CC=C(c5cccc(OCc6ccc(Cl)cc6F)n5)CC3)n4C[C@@H]3CCO3)nc12` [Compound 168], 7.98.
`Cc1cc(NC(=O)c2ccc3c(c2)nc(CN2CC=C(c4cccc(OCc5ccc(Cl)cc5F)n4)CC2)n3C[C@@H]2CCO2)cc2c(C(F)F)n[nH]c12` [Compound 169] gave a negative logarithm of the EC50 (pEC50) of 8.99.
The value for `CCc1cc(NC(=O)c2ccc3c(c2)nc(CN2CC=C(c4cccc(OCc5ccc(Cl)cc5F)n4)CC2)n3C[C@@H]2CCO2)cc2c(C)n[nH]c12` [Compound 170] was 8.45; that for `Cc1n[nH]c2c(C3CC3)cc(NC(=O)c3ccc4c(c3)nc(CN3CC=C(c5cccc(OCc6ccc(Cl)cc6F)n5)CC3)n4C[C@@H]3CCO3)cc12` [Compound 171] was 8.02.
To `Cc1n[nH]c2c(C(F)F)cc(NC(=O)c3ccc4c(c3)nc(CN3CC=C(c5cccc(OCc6ccc(Cl)cc6F)n5)CC3)n4C[C@@H]3CCO3)cc12` [Compound 172] belongs 8.79.
In the case of `Cc1cc(NC(=O)c2ccc3c(c2)nc(CN2CC=C(c4cccc(OCc5ccc(Cl)cc5F)n4)CC2)n3C[C@@H]2CCO2)c(C)c2c(C)n[nH]c12` [Compound 173], the pEC50 is 7.50.
The value for `Cc1n[nH]c2cc(F)c(NC(=O)c3ccc4c(c3)nc(CN3CC=C(c5cccc(OCc6ccc(Cl)cc6F)n5)CC3)n4C[C@@H]3CCO3)cc12` [Compound 174] was 8.67.
The value for `Cc1cc(NC(=O)c2ccc3c(c2)nc(CN2CC=C(c4cccc(OCc5ccc(Cl)cc5F)n4)CC2)n3C[C@@H]2CCO2)c(F)c2c(C)n[nH]c12` [Compound 175] was 8.91.
To `Cc1n[nH]c2ccc(NC(=O)c3ccc4c(c3)nc(CN3CC=C(c5cccc(OCc6ccc(Cl)cc6F)n5)CC3)n4C[C@@H]3CCO3)c(F)c12` [Compound 176] belongs 9.06.
As to `Cc1n[nH]c2c(F)cc(NC(=O)c3ccc4c(c3)nc(CN3CC=C(c5cccc(OCc6ccc(C#N)cc6F)n5)CC3)n4C[C@@H]3CCO3)cc12` [Compound 177], the pEC50 is 9.64.
With `N#Cc1ccc(COc2cccc(C3=CCN(Cc4nc5cc(C(=O)Nc6cc(F)c7c(c6)C6(CC6)C(=O)N7)ccc5n4C[C@@H]4CCO4)CC3)n2)c(F)c1` [Compound 179], the pEC50 was 9.12.
Take `N#Cc1ccc(COc2cccc(C3=CCN(Cc4nc5cc(C(=O)Nc6cc(F)c7[nH]ncc7c6)ccc5n4C[C@@H]4CCO4)CC3)n2)c(F)c1` [Compound 180]: the pEC50 is 8.97.
Regarding `Cc1n[nH]c2c(C)cc(NC(=O)c3ccc4c(c3)nc(CN3CC=C(c5cccc(OCc6ccc(C#N)cc6F)n5)CC3)n4C[C@@H]3CCO3)cc12` [Compound 181], the pEC50 is 9.68.
Compound `N#Cc1ccc(COc2cccc(C3=CCN(Cc4nc5cc(C(=O)Nc6ccc7c(c6)C6(CC6)C(=O)N7)ccc5n4C[C@@H]4CCO4)CC3)n2)c(F)c1` [Compound 182] had a negative-log EC50 (pEC50) of 9.49.
The compound `Cc1cc(NC(=O)c2ccc3c(c2)nc(CN2CC=C(c4cccc(OCc5ccc(C#N)cc5F)n4)CC2)n3C[C@@H]2CCO2)cc2c(C(F)F)n[nH]c12` [Compound 183] had a negative logarithm of the EC50 (pEC50) of 9.12.
In turn, `N#Cc1ccc(COc2cccc(C3=CCN(Cc4nc5cc(C(=O)Nc6ccc7[nH]nc(C(F)(F)F)c7c6)ccc5n4C[C@@H]4CCO4)CC3)n2)c(F)c1` [Compound 184] had a pEC50 of 8.80.
The value for `Cc1cc(NC(=O)c2ccc3c(c2)nc(CN2CC=C(c4cccc(OCc5ccc(C#N)cc5F)n4)CC2)n3C[C@@H]2CCO2)cc2c(C3CC3)n[nH]c12` [Compound 185] was 8.88; that for `CCc1n[nH]c2ccc(NC(=O)c3ccc4c(c3)nc(CN3CC=C(c5cccc(OCc6ccc(C#N)cc6F)n5)CC3)n4C[C@@H]3CCO3)cc12` [Compound 186] was 8.67; that for `Cc1n[nH]c2ccc(NC(=O)c3ccc4c(c3)nc(CN3CC=C(c5cccc(OCc6ccc(C#N)cc6F)n5)CC3)n4C[C@@H]3CCO3)cc12` [Compound 187] was 9.70.
